Data set [1] addresses T1, HO-1 (Mus musculus, UniProt P14901).
T1 construct: endogenous in cells; host or cells: mouse bone marrow derived macrophages (BMDM)
T1 sequence (P14901 1-289): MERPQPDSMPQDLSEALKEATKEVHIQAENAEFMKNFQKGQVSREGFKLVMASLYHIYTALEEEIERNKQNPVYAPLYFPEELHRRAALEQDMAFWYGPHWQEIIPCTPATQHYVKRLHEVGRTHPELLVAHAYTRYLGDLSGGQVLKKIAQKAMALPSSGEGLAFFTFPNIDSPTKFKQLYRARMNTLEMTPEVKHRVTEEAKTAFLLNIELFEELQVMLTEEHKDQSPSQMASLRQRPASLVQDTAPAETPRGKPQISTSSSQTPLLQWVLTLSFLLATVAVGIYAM
As to the kind of experiment: Cytokines in supernatants of CpG-stimulated BMDMs treated with ZnPP and/or CORM2 (ELISA). Type of data set: cell-based. As for the experimental part:
Bone marrow (BM) was extracted from the hind limbs of mice and filtered over a 70-μm strainer to obtain a single cell suspension, followed by RBC lysis. Bone marrow derived macrophages (BMDM) were derived by culture in M-CSF-enriched media of L929 cells. RAW264.7 cells were obtained from ATCC (Manassas, VA). Class B CpG1826 oligonucleotide was synthesized by Integrated DNA Technologies (Coralville, IA). Macrophages were treated with CpG (1 μg/ml) for 18 to 20 hours for cytokine analysis in cell supernatant, and for 0 to 2 hours for analysis of protein expression level by Western blot treated as indicated.
(§1) TLR9 activation induced cytokines from cells supernatants and serum were measured by using the ELISA kits from BD OptEIA™ (Cat nos. IL-12: 555256, IL-10: 555252, TNFα: 555268 and IL-6: 555240; Franklin Lakes, NJ).
Background: In an ELISA, binding on a coated surface is turned into a signal by an enzyme label.

For data set [2] the following is noted: low dose CO (100-125 ppm); patients with idiopathic pulmonary fibrosis or COPD; cited from earlier work.
Data set [3] relates to Nrf2/HO-1. The data set can be described thus: MMF induction of Nrf2 and HO-1 in macrophages of injected mice (Western blot). Type of data set: in vivo, mouse. As to the method: MAS was induced by repeated activation of TLR9 as described (Behrens, et al. (2011) J. Clin. Invest., 121(6):2264-77; Weaver, et al. (2016) Proc. Natl. Acad. Sci., 113(39):10944-9). Briefly, 8-week old mice were injected with five doses of PBS or 50 μg of CpG1826 intraperitoneally every other day for 9 days, while MMF (cat no: 4511, TOCRIS (Bristol, UK)) in DMSO was injected at 45 mg/Kg body weight based on standard dosing used in other murine studies (Cho, et al. (2015) J. Neuroinflammation 12:239; Yao, et al. (2016) Transl. Stroke Res., 7(6):535-47), every day once in the morning and once in the evening. The control group received DMSO instead of MMF. […] Spleens and livers were harvested and were formalin fixed followed by paraffin embedment for tissue sectioning and slide preparation for histology and immunohistochemistry (IHC). To obtain single suspension of spleen leukocytes, spleens at 37° C. were disrupted and incubated in the presence of DNAase and collagenase, followed by filtering over 70-μm strainers and RBC lysis. The cells were counted and then adhered for 2 hours on petri dishes to obtain plastic adherent macrophages.
Protein samples (10-12 μg) were resolved by SDS-PAGE on 4-12% Bis-Tris gels (Invitrogen), electrotransferred to nitrocellulose membranes (Cat no. 10484060, Bio-Rad (Hercules, CA)), and assessed for the immunosignal of proteins using the antibodies against HO-1 (cat no. ADI-SPA-896, Enzo (Farmingdale, NY)), Nrf2 (Cat no. 12721, Cell Signaling (Danvers, MA)), Erk (Cat no. 4695, Cell signaling), pErk (Cat no. 4379, Cell Signaling), Cyclophilin B (CyPB, Cat no. PA1-027A, ThermoFisher Scientific), β tubulin (Cat no. 2146, Cell Signaling), β actin (Cat No. 66009-1-Ig, Proteintech (Rosemont, IL)), Calnexin (Cat no. ab22595, abcam (Cambridge, UK) and Histone 3 (Cat no. 4499, Cell Signaling). Fluorescence tagged respective secondary antibodies obtained from Li-COR (Lincoln, Neb.)—Goat-anti-Rabbit-antibody (IRDye® 800CW), or Donkey-anti-mouse-antibody (IRDye® 800CW) or Donkey anti-Mouse IgG (IRDye® 680RD) were then used. […]
For orientation: Immunoblotting shows a protein as a band on a membrane.

Data set [4] has as its system TLR9-MAS murine model. As to the kind of experiment: TLR9-MAS murine model (repeated CpG), MMF treatment, C57BL/6 mice. It counts as in vivo, mouse. As for the experimental part:
(§2) MAS was induced by repeated activation of TLR9 as described (Behrens, et al. (2011) J. Clin. Invest., 121(6):2264-77; Weaver, et al. (2016) Proc. Natl. Acad. Sci., 113(39):10944-9). Briefly, 8-week old mice were injected with five doses of PBS or 50 μg of CpG1826 intraperitoneally every other day for 9 days, while MMF (cat no: 4511, TOCRIS (Bristol, UK)) in DMSO was injected at 45 mg/Kg body weight based on standard dosing used in other murine studies (Cho, et al. (2015) J. Neuroinflammation 12:239; Yao, et al. (2016) Transl. Stroke Res., 7(6):535-47), every day once in the morning and once in the evening. The control group received DMSO instead of MMF. On day-10 mice were euthanized 24 hours after the last MMF injection, bled terminally to collect blood for complete blood count (CBC) and differential count, and serum for cytokine analysis by ELISA. Spleens and livers were harvested and were formalin fixed followed by paraffin embedment for tissue sectioning and slide preparation for histology and immunohistochemistry (IHC). To obtain single suspension of spleen leukocytes, spleens at 37° C. were disrupted and incubated in the presence of DNAase and collagenase, followed by filtering over 70-μm strainers and RBC lysis. The cells were counted and then adhered for 2 hours on petri dishes to obtain plastic adherent macrophages. TLR9 activation induced cytokines from cells supernatants and serum were measured by using the ELISA kits from BD OptEIA™ (Cat nos. IL-12: 555256, IL-10: 555252, TNFα: 555268 and IL-6: 555240; Franklin Lakes, NJ).

For data set [5], the system named is TLR9-MAS. The data set can be described thus: TLR9-MAS in HMOX1^WT and HMOX1^fl/fl mice, MMF treatment. Type of data set: in vivo, mouse.
From the text: C57BL/6 (WT) and LysM-Cre mice were purchased from The Jackson Laboratory (Bar Harbor, ME). HMOX1^fl/fl mice were crossbred with LysM-Cre mice and genotyped regularly to obtain mice with deletion of the HO-1 gene in myeloid lineage and are designated as: HMOX1^WT (intact HO-1), HMOX1^WT/fl (x LysM-cre, HO-1-haplodeficient,), and HMOX1^fl/fl (x LysM-Cre, complete HO-1-deficiency).
as §2, with “macrophages.” for “macrophages. TLR9 activation induced cytokines from cells supernatants and serum were measured by using the ELISA kits from BD OptEIA™ (Cat nos. IL-12: 555256, IL-10: 555252, TNFα: 555268 and IL-6: 555240; Franklin Lakes, NJ).”
Slides from paraffin-embedded tissue sections were stained with hematoxylin and eosin or were immune-stained for HO-1 (cat no. ADI-SPA-896, Enzo), followed by nuclear stain using prolong gold antifade reagent with Dapi (P36931, Invitrogen (Carlsbad, CA)). Images were acquired on an Eclipse 90i microscope (Nikon (Melville, NY)) using NIS-ELEMENTS software.
as §1

Data set [6] deals with HO-1. The data set can be described thus: Splenic HO-1 expression in vivo after repeated CpG treatment (IHC, Western blot). The arrangement: species or system mouse. As to conditions: IFNγ alone, intraperitoneally, IFNγ-/- mice. As for the experimental part:
MAS was induced by repeated activation of TLR9 as described (Behrens, et al. (2011) J. Clin. Invest., 121(6):2264-77; Weaver, et al. (2016) Proc. Natl. Acad. Sci., 113(39):10944-9). Briefly, 8-week old mice were injected with five doses of PBS or 50 μg of CpG1826 intraperitoneally every other day for 9 days, while MMF (cat no: 4511, TOCRIS (Bristol, UK)) in DMSO was injected at 45 mg/Kg body weight based on standard dosing used in other murine studies (Cho, et al. (2015) J. Neuroinflammation 12:239; Yao, et al. (2016) Transl. Stroke Res., 7(6):535-47), every day once in the morning and once in the evening. The control group received DMSO instead of MMF. On day-10 mice were euthanized 24 hours after the last MMF injection, bled terminally to collect blood for complete blood count (CBC) and differential count, and serum for cytokine analysis by ELISA. Spleens and livers were harvested and were formalin fixed followed by paraffin embedment for tissue sectioning and slide preparation for histology and immunohistochemistry (IHC). To obtain single suspension of spleen leukocytes, spleens at 37° C. were disrupted and incubated in the presence of DNAase and collagenase, followed by filtering over 70-μm strainers and RBC lysis. The cells were counted and then adhered for 2 hours on petri dishes to obtain plastic adherent macrophages. […]

The mark [7] stands for this setting: spleen plastic adherent macrophages, MMF i.p. every 12 hours, 3 doses, 4 hours after last dose.
The mark [8] stands for this setting: day 10, MMF twice a day, CpG every other day.

Structures can show the parent of a compound that is named as a salt.

`[C-]#[O+].[C-]#[O+].[C-]#[O+].[C-]#[O+].[C-]#[O+].[C-]#[O+].[Cl][Ru][Cl].[Cl][Ru][Cl]` [CORM2, carbon monoxide-releasing molecule [CORM] 2]: the IL-10 result in data set [1] (CORM2 in BMDM not inhibited by ZnPP or genetically sufficient for HO-1) is given as “no additional effect”; in data set [1] (CORM2 in HMOX1^fl/fl BMDMs), “rescue”. The IL-10 levels entry in data set [1] (CORM2 in ZnPP treated BMDMs, CpG 1 μg/ml) was “restored IL-10 levels to normal”.
Regarding `[C-]#[O+]` [CO, carbon monoxide], the tolerability entry in data set [2] is on record as “tolerated”.
`C=CC1=C(C)c2cc3[n-]c(cc4nc(cc5[n-]c(cc1n2)c(C)c5C=C)C(C)=C4CCC(=O)O)c(CCC(=O)O)c3C.[Zn+2]` [ZnPP, zinc protoporphyrin]: in data set [1] (ZnPP 3 μM, BMDMs), the “IL-6 in response to CpG” value was “increased levels” and the “TNFα in response to CpG” value was “increased levels”. For the same molecule, the “production of IL-10” value in data set [1] (ZnPP 3 μM, BMDMs stimulated with CpG) is listed as “substantially reduced”. Also, in data set [1] (ZnPP, CpG-treated HMOX1^WT BMDM), the IL-10 entry was “blocked”. The “residual IL-10” value in data set [1] (ZnPP, CpG-treated HMOX1^fl/fl BMDM) was “without showing any effect”.
Turning to `COC(=O)/C=C/C(=O)O` [MMF, monomethyl fumarate], the “HO-1 expression in splenic and peritoneal macrophages” value in data set [3] (MMF treatment) was “increased”. In data set [3] (setting [7]), the “HO-1 immunosignal relative to DMSO control” value is listed as “significantly increased” and the “Nrf2 immunosignal relative to DMSO control” value is listed as “significantly increased”. Further, in data set [4] (MMF + CpG), the cellularity in spleen result is recorded as “reduced cellularity”, the organomegaly of liver result was “reduced” and the organomegaly of spleen entry is reported as “reduced”. The “serum IL-10” value in data set [4] (day 10, MMF 45 mg/Kg twice a day, CpG every other day) is reported as “significantly higher”. Further, in data set [4] (day 10, MMF + CpG), the “erythrocyte count in blood” value is “corrected” and the “platelet count in blood” value was “corrected”. For the same molecule, in data set [4] (setting [8]), the “serum IFNγ” value was “drop” and the “serum IL-12” value is “drop”. Moreover, the “serum IL-10 elevation” value in data set [5] (CpG treated HMOX1^WT mice) came out at 3 fold. In addition, the “serum IL-10 elevation effect” value in data set [5] (CpG treated HMOX1^fl/fl mice) is listed as “completely lost”. The “serum IFNγ” value in data set [5] (CpG treated HMOX1 mice) was “unaffected”. The “serum IL-12” value in data set [5] (CpG treated HMOX1 mice, HO-1 independent) is recorded as “slightly reduced”. Further, in data set [5] (HMOX1^WT mice), the “recovery from anemia (RBC)” value is “almost complete recovery” and the “recovery from thrombocytopenia (platelets)” value is listed as “almost complete recovery”. Also, in data set [5] (HMOX1^fl/fl mice), the hepatosplenomegaly entry is listed as “partially protected”, the “recovery from anemia (RBC)” value is recorded as “partial recovery” and the “recovery from thrombocytopenia (platelets)” value was “partial recovery”. Moreover, in data set [5] (both WT and HMOX1^fl/fl mice), the “lobular inflammatory score (liver)” value is recorded as “reduce” and the “portal inflammatory score (liver)” value was “reduce”. Also, in data set [5] (independent of mouse genotype), the “histologic evidence of endothelial activation” value is recorded as “reduce”.

B1: IFNγ: interferon gamma added back intraperitoneally to IFNγ-/- mice (protein, UniProt P01580 23-155, looked up)
Interferon gamma: HGTVIESLESLNNYFNSSGIDVEEKSLFLDIWRNWQKDGDMKILQSQIISFYLRLFEVLKDNQAISNNISVIESHLITTFFSNSKAKKDAFMSIAKFEVNNPQVQRQAFNELIRVVHQLLPESSLRKRKRSRC
With B1, the “HO-1 induction in spleen” value in data set [6] is on record as “did not induce HO-1”.

The values are drawn from patent US12496287B2, “Compositions and methods for treating macrophage activation syndrome” (THE CHILDREN'S HOSPITAL OF PHILADELPHIA, priority 2019, dated 2025).
